{"source": "patent US12514861B2", "about": "“Targeting DNA-PKCS and B7-H1 to treat cancer” (Mayo Foundation for Medical Education and Research, priority 2014, dated 2026)", "key": {"B7-H1/624mel cells [1]": {"tested_on": "B7-H1/624mel cells", "assay": "MTS tumor cell survival assay", "type": "cell-based", "details": "for drug resistance of B7-H1/624mel cells compared with Mock/624mel cells (tumor cell survival): varying drug concentrations, 72 hours of culture, MTS assay", "experimental": "(§7) Cells were pre-treated with DMSO or NU7026 (10 uM) for 1 hour before treatment with doxorubicin (Dox). The relative survival of tumor cells was measured by MTS assay 72 hours after Dox treatment.\nExperiments were conducted to test whether B7-H1-expressing tumors would show resistance to drugs that cause DNA damage. Along with cisplatin, which crosslinks DNA, doxorubicin (a topoisomerase II inhibitor that leads to generation of free radicals) and SN38 (a topoisomerase I inhibitor) were tested. Drug sensitivity in B7-H1- and Mock-transfected 624mel melanoma cells was examined in cultures with varying concentrations of the drugs. After 72 hours of culture, tumor cell survival was measured with a MTS assay (Pei et al., Cancer Cell 16:259-266, 2009).\n(§8) To test whether the association of B7-H1 with DNA-PKcs is a mechanism of drug resistance, the effects of NU7026 on drug sensitivity of B7-H1- or Mock-transfected 624mel cells were tested. […] Using the same dose (10 uM) of NU7026, experiments were conducted to determine whether NU7026 would affect the drug sensitivity of B7-H1/624mel cells."}, "Mock/624mel cells": {"tested_on": "Mock/624mel cells", "assay": "MTS tumor cell survival assay", "type": "cell-based", "details": "pretreatment with 10 uM NU7026 for 1 hour, MTS 72 hours after Dox", "experimental": "as §7, §8"}, "[2]": {"tested_on": "ERK1/2 activation in B7-H1/624mel cells", "assay": "Intracellular flow cytometry for phospho-ERK1/2", "type": "cell-based", "details": "10 uM, 24 hours", "procedure": "(§1) FIG. 9 is a series of graphs plotting the levels of phosphorylated ERK (top graphs) and total ERK (bottom graphs) in Mock/624mel (left) and B7-H1/624mel (right) tumor cells treated with DMSO or NU7026. Cells were treated with DMSO or NU7026 (10 uM) for 24 hours before intracellular staining for phospho-ERK or total ERK. Numbers are MFI. Inhibition of DNA-PKcs reduced ERK activation, as indicated in the diagram on the right.\n(§2) To test the role of DNA-PKcs in activation of the MAPK signal cascade, tumor cells were treated with NU7026, a DNA-PKcs specific inhibitor. […] As a mechanism of action of ERK1/2 in drug resistance, ERK1/2 phosphorylates Bim and enhances degradation of Bim in tumor cells (Gillings, et al., FEBS J 276:6050-6062, 2009; and Luciano et al., Oncogene 22:6785-6793, 2003)."}, "[3]": {"tested_on": "ERK1/2 activation in Mock/624mel cells", "assay": "Intracellular flow cytometry for phospho-ERK1/2", "type": "cell-based", "details": "10 uM, 24 hours", "procedure": "as §1, §2"}, "[4]": {"biological_target": "T1, association of B7-H1 with DNA-PKcs (Homo sapiens, UniProt P78527)", "T1 construct": "B7-H1 positive human breast cancer cells (MBA-MD-231) were used; endogenous in cells; host or cells: MDA-MB-231 human breast cancer cells", "T1 sequence (P78527 whole entry)": "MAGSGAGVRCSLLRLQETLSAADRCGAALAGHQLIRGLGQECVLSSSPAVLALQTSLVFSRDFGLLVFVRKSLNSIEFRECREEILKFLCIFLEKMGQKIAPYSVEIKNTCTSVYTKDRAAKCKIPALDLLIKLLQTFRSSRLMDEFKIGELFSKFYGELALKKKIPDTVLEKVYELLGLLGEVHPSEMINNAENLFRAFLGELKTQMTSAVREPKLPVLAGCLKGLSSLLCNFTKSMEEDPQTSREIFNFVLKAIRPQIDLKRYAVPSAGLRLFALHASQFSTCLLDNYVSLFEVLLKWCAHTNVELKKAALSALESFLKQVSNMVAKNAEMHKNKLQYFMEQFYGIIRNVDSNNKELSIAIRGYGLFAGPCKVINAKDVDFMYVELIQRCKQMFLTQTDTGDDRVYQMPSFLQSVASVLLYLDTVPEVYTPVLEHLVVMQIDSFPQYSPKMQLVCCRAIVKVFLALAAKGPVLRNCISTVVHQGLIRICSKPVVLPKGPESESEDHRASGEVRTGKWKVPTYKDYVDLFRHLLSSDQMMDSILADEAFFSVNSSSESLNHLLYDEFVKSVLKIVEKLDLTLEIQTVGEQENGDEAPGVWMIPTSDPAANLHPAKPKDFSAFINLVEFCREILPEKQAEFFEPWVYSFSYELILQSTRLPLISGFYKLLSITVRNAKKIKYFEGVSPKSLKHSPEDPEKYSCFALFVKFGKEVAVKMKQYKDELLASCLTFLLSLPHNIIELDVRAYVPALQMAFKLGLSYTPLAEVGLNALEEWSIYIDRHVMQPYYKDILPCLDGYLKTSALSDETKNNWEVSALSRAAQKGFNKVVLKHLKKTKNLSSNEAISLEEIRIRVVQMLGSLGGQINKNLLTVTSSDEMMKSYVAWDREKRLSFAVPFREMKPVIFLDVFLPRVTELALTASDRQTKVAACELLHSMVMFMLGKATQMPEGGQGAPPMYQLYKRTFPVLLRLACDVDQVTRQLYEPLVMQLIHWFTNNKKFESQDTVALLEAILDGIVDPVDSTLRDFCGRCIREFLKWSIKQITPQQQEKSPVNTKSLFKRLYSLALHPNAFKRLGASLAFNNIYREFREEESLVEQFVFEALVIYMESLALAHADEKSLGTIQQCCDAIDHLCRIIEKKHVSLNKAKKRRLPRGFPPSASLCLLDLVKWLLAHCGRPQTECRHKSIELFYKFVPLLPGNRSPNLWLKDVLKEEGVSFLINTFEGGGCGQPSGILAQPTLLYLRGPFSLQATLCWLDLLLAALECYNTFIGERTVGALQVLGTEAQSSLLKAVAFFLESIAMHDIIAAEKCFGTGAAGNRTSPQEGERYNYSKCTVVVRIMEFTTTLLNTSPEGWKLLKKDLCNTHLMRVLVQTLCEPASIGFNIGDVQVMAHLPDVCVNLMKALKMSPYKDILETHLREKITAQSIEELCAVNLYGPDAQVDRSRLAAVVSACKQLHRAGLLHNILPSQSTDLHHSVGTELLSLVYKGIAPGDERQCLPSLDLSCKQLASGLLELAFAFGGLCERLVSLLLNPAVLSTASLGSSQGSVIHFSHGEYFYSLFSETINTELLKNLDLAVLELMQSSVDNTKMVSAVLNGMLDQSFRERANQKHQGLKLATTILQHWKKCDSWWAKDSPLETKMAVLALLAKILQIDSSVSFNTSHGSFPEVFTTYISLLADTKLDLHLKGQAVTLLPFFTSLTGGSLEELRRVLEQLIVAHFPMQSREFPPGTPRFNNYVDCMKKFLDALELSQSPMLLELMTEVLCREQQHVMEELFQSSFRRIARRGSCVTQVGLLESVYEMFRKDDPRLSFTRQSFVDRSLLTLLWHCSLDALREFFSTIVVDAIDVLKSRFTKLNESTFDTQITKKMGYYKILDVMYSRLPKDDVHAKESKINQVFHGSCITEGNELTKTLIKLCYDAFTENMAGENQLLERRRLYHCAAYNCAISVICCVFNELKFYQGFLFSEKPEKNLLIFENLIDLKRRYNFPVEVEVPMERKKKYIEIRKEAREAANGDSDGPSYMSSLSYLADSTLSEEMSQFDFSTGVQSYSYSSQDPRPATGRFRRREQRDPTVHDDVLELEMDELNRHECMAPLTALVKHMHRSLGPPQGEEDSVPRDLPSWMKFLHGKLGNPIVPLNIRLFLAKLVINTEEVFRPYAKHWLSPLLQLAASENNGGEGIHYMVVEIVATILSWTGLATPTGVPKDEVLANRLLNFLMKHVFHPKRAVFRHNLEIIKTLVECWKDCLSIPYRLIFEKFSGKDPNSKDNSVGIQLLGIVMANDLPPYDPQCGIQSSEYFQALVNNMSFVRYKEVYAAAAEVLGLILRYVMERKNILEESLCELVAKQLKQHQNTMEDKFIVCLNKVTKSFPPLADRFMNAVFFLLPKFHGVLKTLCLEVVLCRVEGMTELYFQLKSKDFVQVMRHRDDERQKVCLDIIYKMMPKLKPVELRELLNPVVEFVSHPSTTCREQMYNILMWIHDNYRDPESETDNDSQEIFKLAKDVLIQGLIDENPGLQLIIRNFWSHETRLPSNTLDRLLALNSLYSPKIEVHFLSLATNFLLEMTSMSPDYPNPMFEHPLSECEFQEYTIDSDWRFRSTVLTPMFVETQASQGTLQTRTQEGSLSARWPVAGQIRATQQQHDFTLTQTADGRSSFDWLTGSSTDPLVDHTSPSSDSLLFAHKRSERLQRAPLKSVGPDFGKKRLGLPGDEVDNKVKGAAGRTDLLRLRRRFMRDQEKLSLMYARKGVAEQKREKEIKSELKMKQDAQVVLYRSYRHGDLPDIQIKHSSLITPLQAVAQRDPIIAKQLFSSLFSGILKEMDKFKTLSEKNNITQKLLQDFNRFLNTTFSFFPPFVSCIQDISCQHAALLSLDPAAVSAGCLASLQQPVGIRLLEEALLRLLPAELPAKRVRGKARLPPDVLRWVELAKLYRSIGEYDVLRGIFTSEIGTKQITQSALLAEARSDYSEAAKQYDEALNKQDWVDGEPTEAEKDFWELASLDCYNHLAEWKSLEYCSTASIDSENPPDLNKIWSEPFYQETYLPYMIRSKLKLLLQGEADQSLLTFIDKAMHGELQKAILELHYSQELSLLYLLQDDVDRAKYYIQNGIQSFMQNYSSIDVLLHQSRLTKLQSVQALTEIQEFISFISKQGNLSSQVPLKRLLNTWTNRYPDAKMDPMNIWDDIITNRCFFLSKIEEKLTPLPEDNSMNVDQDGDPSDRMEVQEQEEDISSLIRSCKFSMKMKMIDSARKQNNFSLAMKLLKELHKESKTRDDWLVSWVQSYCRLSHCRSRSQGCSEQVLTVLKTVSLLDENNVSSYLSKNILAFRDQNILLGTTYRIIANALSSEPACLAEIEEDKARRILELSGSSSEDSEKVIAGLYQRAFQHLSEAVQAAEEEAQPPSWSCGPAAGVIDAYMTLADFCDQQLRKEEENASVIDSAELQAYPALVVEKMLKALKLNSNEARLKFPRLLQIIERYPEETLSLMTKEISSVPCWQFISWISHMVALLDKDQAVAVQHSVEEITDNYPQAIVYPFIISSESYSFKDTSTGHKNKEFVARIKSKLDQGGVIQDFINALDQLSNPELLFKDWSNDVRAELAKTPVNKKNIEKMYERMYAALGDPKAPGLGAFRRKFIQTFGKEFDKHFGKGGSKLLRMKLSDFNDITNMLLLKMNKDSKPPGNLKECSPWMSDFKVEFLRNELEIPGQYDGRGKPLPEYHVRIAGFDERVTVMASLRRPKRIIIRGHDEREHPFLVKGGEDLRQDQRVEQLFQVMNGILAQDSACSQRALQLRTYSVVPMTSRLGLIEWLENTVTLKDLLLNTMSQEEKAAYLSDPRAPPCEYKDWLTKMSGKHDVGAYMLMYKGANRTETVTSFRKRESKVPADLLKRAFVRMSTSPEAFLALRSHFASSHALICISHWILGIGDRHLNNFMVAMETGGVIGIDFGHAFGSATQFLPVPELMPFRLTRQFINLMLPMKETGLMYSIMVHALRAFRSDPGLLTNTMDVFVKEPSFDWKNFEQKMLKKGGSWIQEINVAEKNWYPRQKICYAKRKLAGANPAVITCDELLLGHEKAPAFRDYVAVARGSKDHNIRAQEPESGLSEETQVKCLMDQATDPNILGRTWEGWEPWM", "assay": "Immuno-precipitation assay of B7-H1 association with DNA-PKcs", "type": "cell-based", "details": "B7-H1 positive human breast cancer cells (MBA-MD-231)", "procedure": "(§3) MBA-MD-231 human breast cancer cells, which are positive for B7-H1, were incubated with NU7026, an inhibitor of DNA-PKCs. […] FIG. 15B is a series of pictures from an immunofluorescence assay in which the cells treated with doxorubicin, NU7026, or both, and stained for DNA-PKcs, DNA, or B7-H1. Doxorubicin-induced co-localization (arrow, upper right panel) of B7-H1 and DNA-PKcs at the nucleus was blocked by NU7026 (lower right panel).\n(§4) B7-H1 positive human breast cancer cells (MBA-MD-231) were used to examine the association of DNA-PKcs and B7-H1."}, "[5]": {"biological_target": "T2, co-localization of B7-H1 and DNA-PKcs at the nucleus (Homo sapiens, UniProt P78527)", "T2 construct": "B7-H1 positive human breast cancer cells (MBA-MD-231) were used; endogenous in cells; host or cells: MDA-MB-231 human breast cancer cells", "T2 sequence (P78527 whole entry)": "as above", "assay": "Immunofluorescence staining of B7-H1 and DNA-PKcs co-localization", "type": "cell-based", "procedure": "FIG. 6 is a series of pictures showing co-localization of B7-H1 and DNA-PKcs. A human breast tumor cell line (MDA-MB-231) was treated with doxorubicin (2 ug/ml) for 2 hours. […] Arrows or arrowheads indicate B7-H1 in plasma or in nuclei, respectively.\nas §3\nB7-H1 undergoes redistribution from the cell surface into the nucleus in human breast tumor cells upon treatment with the cytotoxic drug, doxorubicin (Ghebeh et al., supra).\nas §4"}, "DNA-PKcs": {"biological_target": "DNA-PKcs (Homo sapiens, UniProt P78527)", "details": "cited from earlier work"}, "PI3K": {"tested_on": "PI3K", "details": "read-out: IC50 for inhibition of PI3K; cited from earlier work"}, "B7-H1/624mel cells [6]": {"tested_on": "B7-H1/624mel cells", "assay": "Apoptosis by Annexin V binding and TMRE staining", "type": "cell-based", "details": "doxorubicin 1.5 ug/ml, 48 hr", "description": "(§5) FIG. 1A is a series of graphs plotting relative survival of Mock/624mel (triangles) and B7-H1/624mel (squares) cells treated with the indicated drugs, as determined by MTS (3-(4,5-dimethylthiazol-2-yl)-5-(3-carboxymethoxyphenyl)-2-(4-sulfophenyl)-2H-tetrazolium) assay. The p-value for area under the curve (dose-response curves) was significant (p<0.01) for treatment with cisplatin (left), doxorubicin (center), and SN38 (right). One of three experiments is shown. Apoptosis of tumor cells treated with doxorubicin (1.5 ug/ml, 48 hr.) was analyzed by tetramethylrhodamine ethyl ester (TMRE) and Annexin V staining (FIG. 1), and by intracellular staining for active caspase-3 (FIG. 1C). Numbers are percentages of gated population.\n(§6) Experiments were conducted to test whether B7-H1-expressing tumors would show resistance to drugs that cause DNA damage. […] After 72 hours of culture, tumor cell survival was measured with a MTS assay (Pei et al., Cancer Cell 16:259-266, 2009). […] Since a mechanism of action of most cytotoxic drugs is to induce apoptosis (Sedletska et al., Curr Med Chem Anti-cancer Agents 5:251-265, 2005; and Wang et al., J Biol Chem 279:25535-25543, 2004), apoptosis of B7-H1/624mel and Mock/624mel tumor cells was measured and compared after treatment with doxorubicin. […]"}, "B7-H1/624mel cells [7]": {"tested_on": "B7-H1/624mel cells", "assay": "Intracellular staining for active caspase-3", "type": "cell-based", "details": "doxorubicin 1.5 ug/ml, 48 hr", "description": "as §5, §6"}}, "note": "Where two headings read alike, the source gives them in different places.", "data": [{"smiles": "O=c1cc(N2CCOCC2)oc2c1ccc1ccccc12", "note": "[NU7026]", "values": [{"measurement": "effect on resistance of B7-H1/624mel cells to doxorubicin", "setting": "B7-H1/624mel cells [1]; pretreatment with 10 uM NU7026 for 1 hour, MTS 72 hours after Dox", "result": "lost their resistance to doxorubicin"}, {"measurement": "effect on drug sensitivity of Mock/624mel cells", "setting": "Mock/624mel cells", "result": "increased the drug sensitivity"}, {"measurement": "decrease of activation of ERK1/2 (phospho-ERK)", "setting": "[2]", "result": "~2", "unit": "fold"}, {"measurement": "decrease of activation of ERK1/2 (phospho-ERK)", "setting": "[3]", "result": "not"}, {"measurement": "effect on association of B7-H1 with DNA-PKcs", "setting": "[4]", "result": "abolished"}, {"measurement": "effect on doxorubicin-induced co-localization of B7-H1 and DNA-PKcs at the nucleus", "setting": "[5]; MBA-MD-231 cells, 1 μM NU7026", "result": "blocked"}, {"measurement": "inhibition of DNA-PKcs activity", "setting": "DNA-PKcs; 10 uM", "result": "completely inhibits"}, {"measurement": "IC50", "setting": "DNA-PKcs; read-out: IC50 for inhibiting DNA-PKcs activity", "result": 0.23, "unit": "µM"}, {"measurement": "IC50", "setting": "DNA-PKcs; read-out: IC50 to inhibit DNA-PKcs", "result": 0.23, "unit": "µM"}, {"measurement": "IC50", "setting": "PI3K", "result": 13, "unit": "µM"}]}, {"smiles": "N.N.[Cl][Pt][Cl]", "note": "[cisplatin]", "values": [{"measurement": "drug resistance of B7-H1/624mel cells compared with Mock/624mel cells (tumor cell survival)", "setting": "B7-H1/624mel cells [1]", "result": "more resistant"}]}, {"smiles": "CCc1c2c(nc3ccc(O)cc13)-c1cc3c(c(=O)n1C2)COC(=O)[C@]3(O)CC", "note": "[SN38]", "values": [{"measurement": "drug resistance of B7-H1/624mel cells compared with Mock/624mel cells (tumor cell survival)", "setting": "B7-H1/624mel cells [1]", "result": "more resistant"}]}, {"smiles": "COc1cccc2c1C(=O)c1c(O)c3c(c(O)c1C2=O)C[C@@](O)(C(=O)CO)C[C@@H]3O[C@H]1C[C@H](N)[C@H](O)[C@H](C)O1", "note": "[doxorubicin]", "values": [{"measurement": "drug resistance of B7-H1/624mel cells compared with Mock/624mel cells (tumor cell survival)", "setting": "B7-H1/624mel cells [1]", "result": "more resistant"}, {"measurement": "apoptosis in B7-H1/624mel cells compared to Mock/624mel cells (fold less)", "setting": "B7-H1/624mel cells [6]", "result": 5, "unit": "fold"}, {"measurement": "level of active caspase-3 in B7-H1/624mel cells compared with Mock/624mel cells", "setting": "B7-H1/624mel cells [7]", "result": "lower"}, {"measurement": "localization of B7-H1 and DNA-PKcs after treatment with cytotoxic drug", "setting": "[5]; MDA-MB-231 cells, doxorubicin 2 ug/ml, 2 hours", "result": "co-localization of B7-H1 and DNA-PKcs was observed in the nuclei"}]}]}
